Assay results as given in US12303621B2, “Use of self-assembled alkylsilane coatings for drug delivery applications” (priority 2017, dated 2025).

Assay: In vitro release of TC or Rh in simulated body fluid (SBF) from alkylsilane-coated Mg discs
Type: physicochemical
Conditions: alkylsilane coated Mg disks incubated in SBF, room temperature, 21 day period, sampled every two days; FIG. 1; one way ANOVA highly significant
Procedure: Self-assembled hybrid […] (AS) films on Mg were prepared using a dip-coating technique. The precursor solution was prepared by mixing 0.25 ml (0.73 mM) of […]) (Alfa Aesar, Ward Hill, MA, USA), 0.43 ml (2.92 mM) of […]) (Alfa Aesar, Ward Hill, MA, USA), 2 ml (0.032 mM) of ethanol and 0.25 ml of 0.010 mM HCl (aq.). […] Both the solutions were kept in the dark to avoid contact with light The Mg discs passivated with NaOH were dip coated in the TC- or Rh-containing solution for 1 minute, and dried in air for 10 minutes at room temperature in the dark. The discs were subsequently dried in an incubator at 37° C. for 24 hours to remove any trace amounts of organic solvents. […] Every two days, 150 μl of SBF was taken from each tube and concentrations of Tc and Rh were determined spectroscopically. The concentrations of TC or Rh were determined by measuring absorbance at 280 nm for TC, and fluorescence at excitation/emission wavelengths of 525/555 nm for Rh using a Synergy H1 microplate reader (BioTek instruments, Winooski, VT, USA). Standard curves were created by measuring absorbance and fluorescence intensities of the series of TC and Rh samples of known concentrations. Absorbance and Fluorescence intensity of each sample was calculated as an average of three separate readings. […] Cumulative release of TC or Rh over 21 day period was determined.

Q: With rhodamine as the substance, how does the “concentration in SBF media (cumulative release)” value read?
A: Its value is “incremental increase”.
